# From ChEMBL document CHEMBL1201862, “PubChem BioAssay data set” (2004)
#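 Dose response: 5 concentrations. Exposure: 48 h. Format: 96-well plates. Endpoint: linear interpolation; highest concentration if not reached. Here, GI50 denotes the concentration required for 50% inhibition of growth.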 Active and inactive are the calls of the source. No stated cut-off is given here; in the data, active = GI50 up to about 1.1 µM and inactive = higher.
# Legend:
# Assay in all cases: inhibition of tumour cell growth, NCI panel, 48 h
# HT-29 = system: HT-29
# SNB-75 = system: SNB-75
# DLD-1 = system: DLD-1
# MOLT-4 = system: MOLT-4
# SF-295 = system: SF-295
# SK-MEL-5 = system: SK-MEL-5
# Malme-3M = system: Malme-3M
# UACC-257 = system: UACC-257
# OVCAR-3 = system: OVCAR-3
# 786-0 = system: 786-0
# SK-MEL-28 = system: SK-MEL-28
# NCI-H23 = system: NCI-H23
# A498 = system: A498
# SW-620 = system: SW-620
# HOP-62 = system: HOP-62
# LOX IMVI = system: LOX IMVI
# UO-31 = system: UO-31
# RXF 393 = system: RXF 393
# MDA-N = system: MDA-N
# MDA-MB-231 = system: MDA-MB-231
SMILES,GI50 (HT-29),GI50 (SNB-75),GI50 (DLD-1),GI50 (MOLT-4),GI50 (SF-295),GI50 (SK-MEL-5),GI50 (Malme-3M),GI50 (UACC-257),GI50 (OVCAR-3),GI50 (786-0),GI50 (SK-MEL-28),GI50 (NCI-H23),GI50 (A498),GI50 (SW-620),GI50 (HOP-62),GI50 (LOX IMVI),GI50 (UO-31),GI50 (RXF 393),GI50 (MDA-N),GI50 (MDA-MB-231)
Cc1c(C(=O)CSc2nc3ccccc3c(=O)n2-c2ccccc2)c(=O)n(-c2ccccc2)n1C,> 100 µM (inactive),60.8 µM (inactive),> 100 µM (inactive),> 100 µM (inactive),28.8 µM (inactive),31.6 µM (inactive),60.5 µM (inactive),47.3 µM (inactive),27.6 µM (inactive),19.9 µM (inactive),99.3 µM (inactive),62.4 µM (inactive),42.4 µM (inactive),> 100 µM (inactive),31.4 µM (inactive),42.1 µM (inactive),34.8 µM (inactive),,,
O=c1cc(-c2ccccc2)oc2cc(OCC(O)COc3ccc4c(=O)cc(-c5ccccc5)oc4c3)ccc12,> 100 µM (inactive),,> 100 µM (inactive),40.2 µM (inactive),38.4 µM (inactive),> 100 µM (inactive),> 100 µM (inactive),> 100 µM (inactive),32.5 µM (inactive),17.4 µM (inactive),> 100 µM (inactive),43.9 µM (inactive),> 100 µM (inactive),61.2 µM (inactive),8.43 µM (inactive),25.3 µM (inactive),> 100 µM (inactive),,,
COC12CCC(C(C(=O)c3ccccc3)=C1C(=O)c1ccccc1)C(O)C2 (stereo not given),> 100 µM (inactive),> 100 µM (inactive),> 100 µM (inactive),> 100 µM (inactive),> 100 µM (inactive),> 100 µM (inactive),> 100 µM (inactive),> 100 µM (inactive),> 100 µM (inactive),> 100 µM (inactive),> 100 µM (inactive),> 100 µM (inactive),67.3 µM (inactive),> 100 µM (inactive),> 100 µM (inactive),,> 100 µM (inactive),,,
CC(C)CCC[C@@H](C)C1CCC2[C@@H]3CC=C4C[C@@H](OC(=O)CCC(=O)NCC[N+](C)(C)CCCS(=O)(=O)[O-])CC[C@]4(C)C3CC[C@@]21C (stereo not given in full),26.7 µM (inactive),21.1 µM (inactive),21.7 µM (inactive),19.1 µM (inactive),17 µM (inactive),> 10 µM (inactive),22.5 µM (inactive),23.2 µM (inactive),17.9 µM (inactive),25.8 µM (inactive),17.8 µM (inactive),,,17.7 µM (inactive),17.6 µM (inactive),17.2 µM (inactive),41 µM (inactive),11.3 µM (inactive),,
CCCCSC1CCSc2c1ccc1ccccc21 (stereo not given),71.6 µM (inactive),,78.9 µM (inactive),34.3 µM (inactive),> 100 µM (inactive),> 100 µM (inactive),10.2 µM (inactive),,,> 100 µM (inactive),> 100 µM (inactive),> 100 µM (inactive),,,> 100 µM (inactive),,> 100 µM (inactive),52.8 µM (inactive),,
CCCCN(CCCC)C(=O)C(=O)CC(=O)c1ccc(Br)cc1,> 100 µM (inactive),,> 100 µM (inactive),> 100 µM (inactive),> 100 µM (inactive),> 100 µM (inactive),> 100 µM (inactive),> 100 µM (inactive),> 100 µM (inactive),> 100 µM (inactive),,> 100 µM (inactive),> 100 µM (inactive),> 100 µM (inactive),> 100 µM (inactive),> 100 µM (inactive),> 100 µM (inactive),,,
COc1cc2cc(C(=O)N3CC(CCl)c4ccc(O)cc43)[nH]c2c(OC)c1OC (stereo not given),0.00104 µM (active),0.00628 µM (active),,0.000865 µM (active),0.000285 µM (active),< 0.0001 µM (active),0.00344 µM (active),0.0149 µM (active),0.0031 µM (active),0.00012 µM (active),0.00196 µM (active),0.00199 µM (active),< 0.01 µM (active),0.00233 µM (active),0.00363 µM (active),0.00184 µM (active),0.0198 µM (active),< 0.0001 µM (active),< 0.01 µM (active),0.00196 µM (active)
CC(=O)C1=C(C)O[C@@H]2O[C@H](COCc3ccccc3)[C@@H](OCc3ccccc3)[C@H](O)[C@@H]2S1,19.6 µM (inactive),23.3 µM (inactive),,14 µM (inactive),13.8 µM (inactive),16.5 µM (inactive),18.3 µM (inactive),18.3 µM (inactive),15.2 µM (inactive),25.1 µM (inactive),27.7 µM (inactive),20.4 µM (inactive),25.1 µM (inactive),26.7 µM (inactive),19.5 µM (inactive),21 µM (inactive),22 µM (inactive),13.8 µM (inactive),22.6 µM (inactive),20.3 µM (inactive)
O=C(c1c(F)c(F)c(F)c(F)c1F)c1c(F)c(F)c(F)c(F)c1F,1.32 µM (inactive),1.98 µM (inactive),,0.171 µM (active),2.55 µM (inactive),2.82 µM (inactive),1.52 µM (inactive),1.84 µM (inactive),0.979 µM (active),0.476 µM (active),2.88 µM (inactive),2.48 µM (inactive),3.06 µM (inactive),1.06 µM (active),1.81 µM (inactive),0.71 µM (active),1.23 µM (inactive),1.55 µM (inactive),1.43 µM (inactive),1.85 µM (inactive)
COc1cc(C2c3cc4c(cc3OC(N3CCNCC3)C2C)OCO4)cc(OC)c1OC (stereo not given),0.387 µM (active),0.262 µM (active),,1.16 µM (inactive),0.234 µM (active),0.38 µM (active),0.294 µM (active),3.75 µM (inactive),0.204 µM (active),0.746 µM (active),2.85 µM (inactive),1.09 µM (active),0.726 µM (active),0.445 µM (active),1.13 µM (inactive),0.871 µM (active),1.69 µM (inactive),0.3 µM (active),0.253 µM (active),0.403 µM (active)
O=C1CSC(c2cc3cc(Br)ccc3nc2Cl)N1c1ccc(Cl)cc1 (stereo not given),32.9 µM (inactive),52.2 µM (inactive),,17.4 µM (inactive),12.9 µM (inactive),14 µM (inactive),25.7 µM (inactive),14.8 µM (inactive),16.7 µM (inactive),35.6 µM (inactive),33.7 µM (inactive),31.3 µM (inactive),36 µM (inactive),34.3 µM (inactive),25.8 µM (inactive),16.1 µM (inactive),32.3 µM (inactive),20.8 µM (inactive),27.4 µM (inactive),33.1 µM (inactive)
NC(=O)C(N)=O,,,> 100 µM (inactive),> 100 µM (inactive),> 100 µM (inactive),> 100 µM (inactive),> 100 µM (inactive),> 100 µM (inactive),> 100 µM (inactive),> 100 µM (inactive),> 100 µM (inactive),> 100 µM (inactive),> 100 µM (inactive),> 100 µM (inactive),> 100 µM (inactive),> 100 µM (inactive),> 100 µM (inactive),> 100 µM (inactive),,
c1ccc(CNc2ncnc3nn[nH]c23)cc1,> 100 µM (inactive),> 100 µM (inactive),,> 100 µM (inactive),> 100 µM (inactive),> 100 µM (inactive),> 100 µM (inactive),> 100 µM (inactive),> 100 µM (inactive),> 100 µM (inactive),> 100 µM (inactive),> 100 µM (inactive),34 µM (inactive),> 100 µM (inactive),> 100 µM (inactive),> 100 µM (inactive),91 µM (inactive),> 100 µM (inactive),> 100 µM (inactive),> 100 µM (inactive)
N#CCN(Cc1ccccc1)[C@H]1CCC[C@]1(O)/C=C/c1ccc2c(c1)OCO2,16 µM (inactive),28.4 µM (inactive),,21.7 µM (inactive),16.4 µM (inactive),16.5 µM (inactive),17.6 µM (inactive),22.7 µM (inactive),5.41 µM (inactive),17.4 µM (inactive),17.3 µM (inactive),24.9 µM (inactive),37.2 µM (inactive),20.8 µM (inactive),26.3 µM (inactive),15.7 µM (inactive),27.2 µM (inactive),23.6 µM (inactive),17.6 µM (inactive),21.4 µM (inactive)
CCc1nnc(S)n1/N=C/c1ccc(-c2ccc([N+](=O)[O-])cc2)o1,> 100 µM (inactive),> 100 µM (inactive),> 100 µM (inactive),> 100 µM (inactive),> 100 µM (inactive),,> 100 µM (inactive),> 100 µM (inactive),> 100 µM (inactive),> 100 µM (inactive),> 100 µM (inactive),> 100 µM (inactive),,> 100 µM (inactive),> 100 µM (inactive),> 100 µM (inactive),> 100 µM (inactive),,,
COc1ccc(/C=C2\N/C(=N\N=C/C(O)C(O)C(O)C(O)CO)NC2=O)cc1 (stereo not given),71.8 µM (inactive),22.1 µM (inactive),,8.63 µM (inactive),40.5 µM (inactive),47.3 µM (inactive),23.1 µM (inactive),30.1 µM (inactive),18.6 µM (inactive),35.5 µM (inactive),44 µM (inactive),23.6 µM (inactive),26.9 µM (inactive),76 µM (inactive),24.9 µM (inactive),65.3 µM (inactive),91 µM (inactive),56.5 µM (inactive),20.1 µM (inactive),32.7 µM (inactive)
